For 17 molecules, drug sensitivity score results are on record in the supplement of paper PMC9265050, “Inhibition of RNA Binding in SND1 Increases the Levels of miR-1-3p and Sensitizes Cancer Cells to Navitoclax” (Cancers, 2022).

In this experiment the test system is SW480. The experiment in a line: drug sensitivity score (DSS, integrated dose-response area); higher = more sensitive (stronger viability reduction); extreme values may be limits of the assay. The procedure, abridged: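 Viability of induced SW480 cells carrying control or SND1-targeting shRNA was read by CellTiter-Glo 72 h after plating at 1000 cells per well onto 384-well plates holding 525 small-molecule inhibitors at five concentrations. Induction used 0.1 µg/mL doxycycline for 7 days. Each drug sensitivity score integrates the area under a fitted non-linear dose–response model.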

The mark [1] stands for this setting: shRNA: SND1 shRNA1 (SND1 silenced).
Where [2] appears, read: shRNA: SND1 shRNA2 (SND1 silenced).
Setting [3] is: shRNA: control shRNA (non-targeting).

On to `Cc1cc(Nc2cc(N3CCN(C)CC3)nc(/C=C/c3ccccc3)n2)n[nH]1` [ENMD-2076], for which the drug sensitivity score reads like this: under setting [1], 11.9 DSS; under setting [2], 10.7 DSS; under setting [3], 12 DSS.
The molecule `C[C@@H](Oc1cc(-n2cnc3ccc(CN4CCN(C)CC4)cc32)sc1C(N)=O)c1ccccc1C(F)(F)F` had a drug sensitivity score under setting [1] of 25.1 DSS and a drug sensitivity score under setting [3] of 23.6 DSS.
For `COc1cc2/c(=N/c3ccc(Br)cc3F)nc[nH]c2cc1OCC1CCN(C)CC1` [Vandetanib], the drug sensitivity score by setting is: under setting [1], 2.1 DSS; under setting [2], 5.8 DSS; under setting [3], 5.9 DSS.
Taken in the same sequence, the figures for `O=C(CCCCCCC(=O)Nc1ccc([C@H]2O[C@@H](CSc3nc(-c4ccccc4)c(-c4ccccc4)o3)C[C@@H](c3ccc(CO)cc3)O2)cc1)NO` [Tubacin] were 4.1 DSS, 2.7 DSS and 6.2 DSS.
As to `FC(F)(F)c1ccc(CNc2ccc(Cc3c[nH]c4ncc(Cl)cc34)cn2)cn1` [Pexidartinib], the drug sensitivity score worked out at 0.3 DSS under setting [1], 0.8 DSS under setting [2] and 0.7 DSS under setting [3].
Regarding `O=C(NOCCO)c1ccc2cncn2c1Nc1ccc(I)cc1F` [GDC-0623], the drug sensitivity score by setting is: under setting [1], 13.9 DSS; under setting [2], 7.6 DSS; under setting [3], 7.4 DSS.
On the same counts, the results for `O=c1[nH]c(=O)n([C@H]2C[C@H](O)[C@@H](CO)O2)cc1F` [Floxuridine] are 12.8 DSS, 3 DSS and 4.3 DSS.
`Cc1cnc(NC(=O)Nc2cc(Br)c(C)cc2OC[C@@H]2CNCCO2)cn1` [Rabusertib] showed a drug sensitivity score under setting [1] of 1.8 DSS, a drug sensitivity score under setting [2] of 1.4 DSS and a drug sensitivity score under setting [3] of 2 DSS.
Regarding `N[C@@H]1CCCN(c2c(/C=C3\SC(=O)NC3=O)cccc2-c2ccccc2)C1` [AZD1208], the drug sensitivity score came to 0 DSS under setting [1] and 0 DSS under setting [3].
Consider `N#Cc1ccc2[nH]c(O)c(-c3ccc(CN4CCOCC4)cn3)c2c1` [AZD-1080], for which the drug sensitivity score came out at 1.3 DSS under setting [1] and 1.1 DSS under setting [3].
Take `Cn1c(=O)n(-c2ccc(C(C)(C)C#N)cc2)c2c3cc(-c4cnc5ccccc5c4)ccc3ncc21` [Dactolisib]: the drug sensitivity score runs as follows: under setting [1], 17.8 DSS; under setting [2], 17.8 DSS; under setting [3], 11.3 DSS.
Take `COC(=O)c1ccc2c(c1)[nH]c1ncnc(NCCCN3CCCCC3)c12` [UM729]: the drug sensitivity score by setting is: under setting [1], 1.8 DSS; under setting [2], 2.8 DSS; under setting [3], 3.3 DSS.
On to `C[C@]12C=CC(=O)C=C1CC[C@@H]1[C@@H]2[C@@H](O)C[C@@]2(C)[C@H]1CC[C@]2(O)C(=O)CO` [Prednisolone], for which the drug sensitivity score came to 0 DSS under setting [1], 0 DSS under setting [2] and 0 DSS under setting [3].
Consider `Cc1cnc(-c2ccccc2C(C)C)nc1NCc1ccc(-n2ccnn2)cc1` [ML323], for which the drug sensitivity score came to 0 DSS under setting [1], 1.4 DSS under setting [2] and 4.4 DSS under setting [3].
Taken in the same sequence, the figures for `Cn1ncc(Cl)c1-c1cc(C(=O)N[C@H](CN)Cc2ccc(F)c(F)c2)oc1Cl` [Uprosertib] were 0 DSS, 0.3 DSS and 0.2 DSS.
Taken in the same sequence, the figures for `COc1cc(O)c2c(c1)/C=C/C[C@H](O)[C@H](O)C(=O)/C=C\C[C@H](C)OC2=O` [(5Z)-7-Oxozeaenol] were 3.7 DSS, 2.6 DSS and 3.6 DSS.
In the case of `CNC(=O)c1ccccc1Nc1cc(Nc2ccc(N3CCOCC3)cc2OC)ncc1C(F)(F)F` [VS-4718], the drug sensitivity score amounted to 4.8 DSS under setting [1], 3.8 DSS under setting [2] and 4.1 DSS under setting [3].
